Assay results from PubChem BioAssay (NCI).
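1) Cells in 96-well plates. 2) Compound, 48 h, 5 concentrations. 3) Linear interpolation between surrounding doses. 4) Unreached endpoint = highest concentration. The concentration for 50% growth inhibition is given as GI50. TGI marks complete inhibition of growth.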

How the values were obtained:
Assay in all cases: inhibition of tumour cell growth, NCI panel, 48 h
HCT-116 colon = system: HCT-116 colon
CAKI-1 renal = system: CAKI-1 renal
SK-MEL-2 melanoma = system: SK-MEL-2 melanoma
DU-145 prostate = system: DU-145 prostate
SF-539 CNS = system: SF-539 CNS
HOP-92 NSCLC = system: HOP-92 NSCLC
NCI-H23 lung = system: NCI-H23 lung
MOLT-4 leukemia = system: MOLT-4 leukemia
A498 renal = system: A498 renal
MCF7 breast = system: MCF7 breast

With `Clc1ccc(Nc2nc(Nc3ccccc3)nc(Nc3ccc(-c4cc(-c5ccc(Cl)cc5)on4)cc3)n2)cc1` the GI50 (HCT-116 colon) was 7.68 µM, the TGI (HCT-116 colon) was 26.5 µM and the GI50 (CAKI-1 renal) was 15.3 µM. The TGI (CAKI-1 renal) was 69.2 µM, the GI50 (SK-MEL-2 melanoma) was 24.1 µM and the TGI (SK-MEL-2 melanoma) was > 100 µM. The GI50 (DU-145 prostate) was 20.4 µM, the TGI (DU-145 prostate) was 80.3 µM and the GI50 (SF-539 CNS) was 37.9 µM. The TGI (SF-539 CNS) was > 100 µM, the GI50 (HOP-92 NSCLC) was 1.93 µM and the TGI (HOP-92 NSCLC) was 20 µM. It also gave a GI50 (NCI-H23 lung) of 18.4 µM, a TGI (NCI-H23 lung) of 60.4 µM and a GI50 (MOLT-4 leukemia) of 21 µM. For the same molecule, the TGI (MOLT-4 leukemia) was > 100 µM, the GI50 (A498 renal) was 3.38 µM and the TGI (A498 renal) was 55.1 µM. For the same molecule, the GI50 (MCF7 breast) was 12.2 µM and the TGI (MCF7 breast) was > 100 µM.
Work on `N#Cc1ccccc1C#C/C=C\C#Cc1ccccc1N` yielded a GI50 (CAKI-1 renal) of 0.129 µM, a TGI (CAKI-1 renal) of 0.634 µM and a GI50 (SK-MEL-2 melanoma) of 1.17 µM. The TGI (SK-MEL-2 melanoma) was 8.2 µM, the GI50 (DU-145 prostate) was 13.9 µM and the TGI (DU-145 prostate) was > 100 µM. The GI50 (SF-539 CNS) was 4.49 µM, the TGI (SF-539 CNS) was > 20.2 µM and the GI50 (HOP-92 NSCLC) was 2.45 µM. The TGI (HOP-92 NSCLC) was > 78.2 µM, the GI50 (NCI-H23 lung) was 2.88 µM and the TGI (NCI-H23 lung) was 29.2 µM. The GI50 (MOLT-4 leukemia) was 3.68 µM, the TGI (MOLT-4 leukemia) was > 100 µM and the GI50 (A498 renal) was 34.9 µM. The TGI (A498 renal) was 94.1 µM, the GI50 (MCF7 breast) was 67.9 µM and the TGI (MCF7 breast) was > 100 µM.
`CC(=O)Nc1ccc(C(=O)NN2C(=O)C(Cl)C2c2cccc([N+](=O)[O-])c2)cc1` (configuration not stated) was tested, and the TGI (HCT-116 colon) was > 100 µM, the TGI (SK-MEL-2 melanoma) was > 100 µM and the TGI (SF-539 CNS) was > 100 µM. For the same molecule, the TGI (HOP-92 NSCLC) was > 100 µM, the TGI (NCI-H23 lung) was > 100 µM and the TGI (MOLT-4 leukemia) was > 100 µM.
For `O=S(=O)(O)c1ccc2c(N=Nc3ccc(N=Nc4ccccc4)cc3)c(O)c(S(=O)(=O)O)cc2c1`, the TGI (HCT-116 colon) was > 100 µM, the TGI (CAKI-1 renal) was > 100 µM and the TGI (SK-MEL-2 melanoma) was > 100 µM. For the same molecule, the TGI (DU-145 prostate) was > 100 µM, the TGI (SF-539 CNS) was > 100 µM and the TGI (HOP-92 NSCLC) was > 100 µM. The TGI (NCI-H23 lung) was > 100 µM, the TGI (MOLT-4 leukemia) was > 100 µM and the TGI (MCF7 breast) was > 100 µM.
`Nc1cc(S(=O)(=O)O)cc2ccc(S(=O)(=O)O)cc12` was tested, and the TGI (HCT-116 colon) was > 100 µM, the TGI (CAKI-1 renal) was > 100 µM and the TGI (SK-MEL-2 melanoma) was > 100 µM. For the same molecule, the TGI (DU-145 prostate) was > 100 µM, the TGI (SF-539 CNS) was > 100 µM and the TGI (HOP-92 NSCLC) was > 100 µM. For the same molecule, the TGI (NCI-H23 lung) was > 100 µM, the TGI (A498 renal) was > 100 µM and the TGI (MCF7 breast) was > 100 µM.
In the case of `O=C(Nc1ccc(-n2ccc3c(NC(=O)c4ccccc4)nccc32)cc1)Nc1cccc(C(F)(F)F)c1`, the GI50 (HCT-116 colon) is reported as 2.91 µM, the TGI (HCT-116 colon) is reported as 10.1 µM and the GI50 (CAKI-1 renal) is reported as 10.8 µM. It also gave a TGI (CAKI-1 renal) of 37.4 µM, a GI50 (SK-MEL-2 melanoma) of 15 µM and a TGI (SK-MEL-2 melanoma) of 30.3 µM. The GI50 (DU-145 prostate) was 4.2 µM, the TGI (DU-145 prostate) was 14.8 µM and the GI50 (SF-539 CNS) was 1.75 µM. It also gave a TGI (SF-539 CNS) of 18.4 µM, a GI50 (HOP-92 NSCLC) of 2.59 µM and a TGI (HOP-92 NSCLC) of 11.7 µM. For the same molecule, the GI50 (NCI-H23 lung) was 3.28 µM, the TGI (NCI-H23 lung) was 17.6 µM and the GI50 (MOLT-4 leukemia) was 2.65 µM. The TGI (MOLT-4 leukemia) was 10.9 µM, the GI50 (A498 renal) was 6.39 µM and the TGI (A498 renal) was 21 µM. For the same molecule, the GI50 (MCF7 breast) was 6.61 µM and the TGI (MCF7 breast) was 24.8 µM.
In the case of `C[N+]1(CCC(=O)c2ccccc2)CCC2CCC(C2)C1` (configuration not stated), the TGI (HCT-116 colon) is reported as > 100 µM, the TGI (CAKI-1 renal) is reported as > 100 µM and the TGI (SK-MEL-2 melanoma) is reported as > 100 µM. The TGI (DU-145 prostate) was > 100 µM, the TGI (SF-539 CNS) was > 100 µM and the TGI (HOP-92 NSCLC) was > 100 µM. For the same molecule, the TGI (NCI-H23 lung) was > 100 µM, the TGI (MOLT-4 leukemia) was > 100 µM and the TGI (A498 renal) was > 100 µM. The TGI (MCF7 breast) was > 100 µM.
In the case of `CC1=CC(O)C(C(O)(C(F)(F)F)C(F)(F)F)C(C)(C)C1` (configuration not stated), the TGI (HCT-116 colon) is reported as > 10 µM, the TGI (CAKI-1 renal) is reported as > 10 µM and the TGI (SK-MEL-2 melanoma) is reported as > 10 µM. For the same molecule, the TGI (DU-145 prostate) was > 10 µM, the TGI (SF-539 CNS) was > 10 µM and the TGI (HOP-92 NSCLC) was > 10 µM. For the same molecule, the TGI (NCI-H23 lung) was > 10 µM, the TGI (MOLT-4 leukemia) was > 10 µM and the TGI (A498 renal) was 0.0823 µM. For the same molecule, the TGI (MCF7 breast) was > 10 µM.
For `Cc1oc(N)c(S(=O)(=O)c2cc3ccccc3n(O)c2=N)c1C`, the TGI (CAKI-1 renal) was > 100 µM, the TGI (SK-MEL-2 melanoma) was > 100 µM and the TGI (DU-145 prostate) was > 100 µM. The TGI (SF-539 CNS) was > 100 µM, the TGI (HOP-92 NSCLC) was > 100 µM and the TGI (NCI-H23 lung) was > 100 µM. The TGI (MOLT-4 leukemia) was > 100 µM, the TGI (A498 renal) was > 100 µM and the TGI (MCF7 breast) was > 100 µM.
`CC1=C[C@@H](C)C[C@]2(C)CC[C@H](O2)[C@]23CC[C@](CO)(C[C@H](O2)[C@@H]2O[C@@](C)(CC2=O)[C@@H](O)[C@H]2CC[C@@]4(CCC[C@@H](O4)[C@H](C)C(=O)O[C@H]4C[C@H]([C@]5(O)OCC[C@H](C)[C@@H]5O)O[C@H]4C=C1)O2)O3` was tested, and the TGI (HCT-116 colon) was > 10 µM, the TGI (CAKI-1 renal) was 0.107 µM and the TGI (SK-MEL-2 melanoma) was > 2.45 µM. For the same molecule, the TGI (DU-145 prostate) was > 10 µM, the TGI (HOP-92 NSCLC) was 0.00697 µM and the TGI (MOLT-4 leukemia) was > 10 µM. For the same molecule, the TGI (A498 renal) was 0.0156 µM and the TGI (MCF7 breast) was > 10 µM.
For `CC1C(=O)c2cc3c(cc2CCN(C)Cc2c1ccc1c2OCO1)OCO3` (configuration not stated), the GI50 (HCT-116 colon) was 23.4 µg/mL, the TGI (HCT-116 colon) was > 75 µg/mL and the GI50 (CAKI-1 renal) was > 75 µg/mL. The TGI (CAKI-1 renal) was > 75 µg/mL, the GI50 (SK-MEL-2 melanoma) was > 75 µg/mL and the TGI (SK-MEL-2 melanoma) was > 75 µg/mL. The GI50 (DU-145 prostate) was > 75 µg/mL, the TGI (DU-145 prostate) was > 75 µg/mL and the GI50 (SF-539 CNS) was 71.2 µg/mL. The TGI (SF-539 CNS) was > 75 µg/mL, the GI50 (HOP-92 NSCLC) was > 75 µg/mL and the TGI (HOP-92 NSCLC) was > 75 µg/mL. The GI50 (NCI-H23 lung) was > 75 µg/mL, the TGI (NCI-H23 lung) was > 75 µg/mL and the GI50 (MOLT-4 leukemia) was 21.8 µg/mL. For the same molecule, the TGI (MOLT-4 leukemia) was > 75 µg/mL, the GI50 (A498 renal) was > 75 µg/mL and the TGI (A498 renal) was > 75 µg/mL. For the same molecule, the GI50 (MCF7 breast) was 48.5 µg/mL and the TGI (MCF7 breast) was > 75 µg/mL.
For `N=c1ccc2nc(N)nn(O)c-2c1`, the TGI (HCT-116 colon) was > 100 µM, the TGI (CAKI-1 renal) was > 100 µM and the TGI (SK-MEL-2 melanoma) was > 100 µM. For the same molecule, the TGI (DU-145 prostate) was > 100 µM, the TGI (SF-539 CNS) was > 100 µM and the TGI (NCI-H23 lung) was > 100 µM. For the same molecule, the TGI (MOLT-4 leukemia) was > 100 µM, the TGI (A498 renal) was > 100 µM and the TGI (MCF7 breast) was > 100 µM.
In the case of `CC1(C(=O)O)C[C@](C)(C(=O)OCc2ccccc2)C[C@](C)(C(=O)OCc2ccccc2)C1` (some centres not stated), the TGI (HCT-116 colon) is reported as 57.9 µM, the TGI (CAKI-1 renal) is reported as 71.2 µM and the TGI (SK-MEL-2 melanoma) is reported as 39.3 µM. For the same molecule, the TGI (DU-145 prostate) was > 100 µM, the TGI (SF-539 CNS) was 64.5 µM and the TGI (HOP-92 NSCLC) was 54 µM. For the same molecule, the TGI (NCI-H23 lung) was 56.6 µM, the TGI (MOLT-4 leukemia) was 67.6 µM and the TGI (MCF7 breast) was > 100 µM.
